Measured values reported in publication PMC3769965 (Biochemistry, 2013).

Target: Eis_Msm (Mycolicibacterium smegmatis, UniProt A0QY29)
Test: DTNB initial rate
Format: biochemical
Details: AcCoA, 50 mM Tris-HCl pH 8.0

With `NC[C@@H]1O[C@H](O[C@H]2[C@@H](O)[C@H](O[C@@H]3[C@@H](O)[C@H](N)C[C@H](N)[C@H]3O[C@H]3O[C@H](CO)[C@@H](O)[C@H](O)[C@H]3N)O[C@@H]2CO)[C@H](N)[C@@H](O)[C@@H]1O` [PAR, paromomycin] the “DTNB initial rate (CoA release); LCMS of tri-acetylation” value was “with Eis_Mtb, Eis_Msm, and all Eis_Mtb-mutants, PAR was always tri-acetylated”.
